In PMC5353646, “Allosteric modulation of peroxisomal membrane protein recognition by farnesylation of the peroxisomal import receptor PEX19” (Nature Communications, 2017):

Legend:
[1] = NMR 13C secondary chemical shifts (peptide conformation); assay type: physicochemical; details: C-terminally extended version of the ALDP peptide with additional tryptophan (residue 68 to 82)
Text: Phe71 aromatic ring protons
Residue number Leucine residue
Supplementary Figure 8: Intermolecular NOEs between PEX19 CTD and the ALDP peptide, and secondary structure of the latter. (a) 1H,1H plane of a 3D ω1-filtered, ω2-edited 13C-NOESY-HSQC experiment of farnesylated PEX19 CTD free (black) and bound to the ALDP peptide (red). Methyl and methylene protons of the unlabeled farnesyl group of the PEX19 CTD show NOEs with protons of the isotope-labeled farnesylated PEX19 CTD (black circles). In the presence of also unlabeled ALDP peptide additional intermolecular methyl-methyl and aliphatic-aromatic NOEs are observed (red circles and below). (b) NMR 13C secondary chemical shifts of a C-terminally extended […]
tion. (c) Due to signal overlap, 5 out of 7 spin systems for leucine residues were assigned. Nevertheless, also the leucines residues adopt a helical conformation.
(also on this page, place not known: (Leu75)(Leu76) (Leu81)(Leu82) 5 LeuC Cα- Cβ [p.p.m.] Cα- Cβ [p.p.m.] c ω2 ω1 1H (p.p.m.) ω1 1H (p.p.m.) QDPro273/Pro274 { - - { 5)

farnesylated PEX19 CTD = target: T1, farnesylated PEX19 CTD (Homo sapiens, UniProt P40855); experiment: NMR titration of farnesylated PEX19 CTD with PMP peptides; assay type: binding; details: 1H,15N HSQC; 298 K; ALDP at 5 and 10 molar ratio with 100 μM PEX19 CTD; PEX13 at 1:1.5 and 1:0.5 with 50 μM
T1 construct: we studied the human PEX19 CTD (residues 161–299) that includes the native C-terminus; hexahistidine (TEV-cleavable) (cleaved yes); made in house; host or cells: Escherichia coli BL21 (DE3); farnesylated in vitro with recombinant S. cerevisiae farnesyl transferase
T1 sequence (P40855 161-299): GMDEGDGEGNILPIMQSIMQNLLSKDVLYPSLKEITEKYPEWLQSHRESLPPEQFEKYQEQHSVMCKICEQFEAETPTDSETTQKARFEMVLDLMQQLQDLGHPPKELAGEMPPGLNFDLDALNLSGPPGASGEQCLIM

[2] = target: T2, farnesylated wild type PEX19 CTD (Homo sapiens, UniProt P40855); experiment: Fluorescence polarization, ALDP peptide binding to farnesylated wild type PEX19 CTD
T2 construct: we studied the human PEX19 CTD (residues 161–299) that includes the native C-terminus; hexahistidine (TEV-cleavable) (cleaved yes); made in house; host or cells: Escherichia coli BL21 (DE3); farnesylated in vitro with recombinant S. cerevisiae farnesyl transferase
T2 sequence (P40855 161-299): T1 sequence (P40855 161-299)
Experimental: (§1) ALDP peptide (62-AAKAGMNRVFLQRLL-76) fused N-terminally with fluorescein isothiocyanate (FITC), was purchased from Peptide Specialty Laboratories GmbH. The lyophilized powder was dissolved in 1 ml water resulting in a 5 mM stock solution. Overnight dialysis against buffer containing 50 mM Tris pH 8.0, 50 mM NaCl, removed trifluoroacetate counterions. For the determination of each binding curve a 12 point titration was performed with constant concentration of 20 nM labelled peptide with increasing concentrations of PEX19 CTD variants. Starting concentration of PEX19 CTD was 1 mM with 12 serial dilutions reaching 0.5 μM. Reaction mixtures were then transferred into 96-well Optiplate and measured as triplicates in PerkinElmer EnVision plate reader. […]
(§2) Supplementary Figure 6: ALDP af finity measurement for PEX19 CTD proteins using a fluorescence polarization assay . Polarization plots as a function of protein concentration for the direct titration of PEX19 non-farnesylated (black) and farnesylated (red) forms (wild type and residue spedific mutants) into fluorescein-labeled ALDP peptide. […]
standard deviations for triplicate measurements (n = 3).
(§3) (also on this page, place not known: assay. affinity Fluorescence polarization (mP) wt wtfarn Fluorescence polarization (mP) M179Rfarn 0.00 1.00 Fluorescence polarization (mP) M255Rfarn 0.00 1.00 Fluorescence polarization (mP) I195Kfarn Kd Kd /uni03BCM)

PEX19 CTD I195K = experiment: Fluorescence polarization, ALDP peptide binding to PEX19 CTD I195K; design: species or system human; details: with or without farnesylation, FITC-labelled ALDP peptide 20 nM, triplicate (n = 3)
Experimental: as §1, §2, §3

[3] = target: T3, non-farnesylated PEX19 CTD (Homo sapiens, UniProt P40855); experiment: NMR titration of non-farnesylated PEX19 CTD with PMP peptides; assay type: binding; details: 100 μM PEX19 CTD; peptide molar ratio up to 10:1; 1H,15N HSQC; 298 K
T3 construct: we studied the human PEX19 CTD (residues 161–299) that includes the native C-terminus; hexahistidine (TEV-cleavable) (cleaved yes); made in house; host or cells: Escherichia coli BL21 (DE3)
T3 sequence (P40855 161-299): T1 sequence (P40855 161-299)
Experimental: Figure 4 NMR analysis of PMP binding to non-farnesylated and farnesylated PEX19 CTD. (a) Comparison of ^1H,^15N HSQC spectra of 100 μM non-farnesylated CTD free (black) and in the presence of 10-fold excess of the ALDP-derived peptide (cyan). (b) Comparison of ^1H,^15N HSQC spectra of 100 μM farnesylated PEX19 CTD free (black) and in the presence of 5 (green) and 10 (red) molar ratio of the ALDP peptide. The grey dashed line indicates the position of additional baseline correction applied to remove noise from DMF signals in the peptide stock solution. (c) Chemical shift perturbation of Met/Ile methyl groups seen in ^1H,^13C HSQC experiments upon increasing concentration of ALDP peptide. […] (d) Quantification of chemical shift perturbation (CSP) of amide and methyl groups with respect to the PEX19 amino acid sequence. […] Grey colour refers to residues, which could not be analysed.
NMR spectra were acquired at 298 K on a Bruker Avance III 600-MHz spectrometer with a TCI cryo-probe head, an Avance III 750-MHz spectrometer with a TXI probe head, or an Avance 900 instrument with a TXI cryo-probe head. Spectra were processed using NMRPipe[31] and analysed with Sparky[32]. […] Backbone and side chain assignments were obtained from HNCA, HNCACB, CBCA(CO)NH, H(C)CH-TOCSY and (H)CCH-TOCSY spectra. ^13C- and ^15N- edited NOESY spectra with a mixing time of 70 ms were recorded to derive distance restraints. […]

PEX19 CTD M179R = experiment: Fluorescence polarization, ALDP peptide binding to PEX19 CTD M179R; design: species or system human; details: with or without farnesylation, FITC-labelled ALDP peptide 20 nM, triplicate (n = 3)
Experimental: as §1, §2, §3

PEX19 CTD M255R = experiment: Fluorescence polarization, ALDP peptide binding to PEX19 CTD M255R; design: species or system human; details: with or without farnesylation, FITC-labelled ALDP peptide 20 nM, triplicate (n = 3)
Experimental: as §1, §2, §3

AAKAGMNRVFLQRLL [ALDP peptide, peptide, residues 62–76 of human ALDP]
helical conformation of free peptide [1]: preformed helical conformation | NMR chemical shift perturbations / line broadening of farnesylated PEX19 CTD (farnesylated PEX19 CTD): distinct chemical shift perturbations | affinity (in words) ([2]; farnesylated PEX19 CTD): micromolar affinity | increase in affinity upon farnesylation of wild type PEX19 CTD ([2]; ratio farnesylated vs non-farnesylated wild type PEX19 CTD): seven | binding to PEX19 CTD I195K (PEX19 CTD I195K): impaired binding | NMR spectral changes of non-farnesylated PEX19 CTD [3]: no significant spectral changes | binding to PEX19 CTD M179R (PEX19 CTD M179R): impaired binding | binding to PEX19 CTD M255R (PEX19 CTD M255R): impaired binding
